Data: patent US20230127046A1, “G9a INHIBITOR” (RIKEN, priority 2019, published 2023)
Like-named read-outs stand apart in the source and are kept apart here.

Legend:
[1] = tested on: intracellular histone H3K9 dimethylation level in human lung cancer cell line NCI-H460; assay: Histone H3K9 dimethylation inhibitory activity test (Western blotting); format: cell-based; conditions: NCI-H460 cells, 72 hours
Procedure: The inhibitory activity of each compound against G9a was evaluated by adding the compound to a human lung cancer cell line NCI-H460, and detecting change in intracellular histone H3K9 dimethylation level by Western blotting. The NCI-H460 cells were cultured in a DMEM medium (FUJIFILM Wako Pure Chemical Corp., 044-29765) containing 10% fetal bovine serum and 4 mM glutamine. The cultured cells were washed with PBS and then detached with trypsin/EDTA, and the cell suspension was adjusted to 2.5×10^4 cells/mL. The cell suspension was inoculated at 500 μL/well to a 24-well microplate (Thermo Fisher Scientific, Inc., 142475) and cultured overnight under conditions of 37° C. and 5% CO2. On the next day, the test compound (solution in DMSO) was added at 0.5 µL/well and reacted for 72 hours under conditions of 37° C. and 5% CO2. DMSO was added at 0.5 μL/well to control wells (final DMSO concentration: 0.1%). The medium was removed, and the cells were washed with PBS. Then, a 2×SDS-PAGE sample buffer (100 mM Tris-HCl (pH 6.8), 4% sodium lauryl sulfate, 2% 2-mercaptoethanol, 20% glycerol, 0.005% bromophenol blue) was added at 50 μL/well to prepare a sample. The recovered sample was heated at 95 to 100° C. for 10 minutes, and protein was separated by polyacrylamide gel electrophoresis (SDS-PAGE). Subsequently, the separated protein was transferred to a polyvinylidene fluoride (PVDF) membrane by semi-dry blotting. The PVDF membrane was dipped in 3% skimmed milk (dissolved in PBS containing 0.05% Tween 20 (PBST)), blocked at room temperature for 30 to 60 minutes, then dipped in an anti-dimethylated histone H3K9 antibody (Abcam plc, ab1220) diluted 1000-fold with 3% skimmed milk, and reacted overnight at 4° C. On the next day, the PVDF membrane was washed three times with PBST, then dipped in a HRP (horseradish peroxidase)-labeled anti-mouse IgG antibody diluted 10000-fold with skimmed milk, and reacted at room temperature for 1 hour. The PVDF membrane was washed three times with PBST, then dipped in chemiluminescent substrate solution Immobilon Western Chemiluminescent HRP Substrate (Merck Millipore, WBKLS0500), incubated at room temperature for 5 minutes, and photographed with Lumino Image Analyzer (GE Healthcare Japan Corp., ImageQuant LAS4000).
Then, the antibody was stripped from the PVDF membrane using re-probe reagent EzReprobe (ATTO Corp., WSE-7240), and trimethylated histone H3K9 and histone H3 were detected by the same procedures as above. An anti-trimethyl histone H3K9 antibody (39161, diluted 1000-fold) from Active Motif, Inc. and an anti-histone H3 antibody (ab1791, diluted 2000-fold) from Abcam plc were used in the detection. The band of each protein was quantified from the taken image using image processing software ImageJ (NIH). The ratios of dimethylated histone H3K9 and trimethylated histone H3K9 to the histone H3 protein were calculated with the numeric value of a compound-unsupplemented sample defined as 100%. A compound concentration at which the ratio of dimethylated histone H3K9 was 50% was calculated as a 50% inhibition concentration (IC50 value) using data analysis software Origin (LightStone Corp.).

[2] = molecular target: T1, recombinant human G9a protein (Homo sapiens, UniProt Q96KQ7); assay: G9a inhibitory activity test (ALPHA); format: biochemical
T1 construct: purchased BPS Bioscience Inc. #51001
T1 sequence (Q96KQ7 785-1210 limits assumed): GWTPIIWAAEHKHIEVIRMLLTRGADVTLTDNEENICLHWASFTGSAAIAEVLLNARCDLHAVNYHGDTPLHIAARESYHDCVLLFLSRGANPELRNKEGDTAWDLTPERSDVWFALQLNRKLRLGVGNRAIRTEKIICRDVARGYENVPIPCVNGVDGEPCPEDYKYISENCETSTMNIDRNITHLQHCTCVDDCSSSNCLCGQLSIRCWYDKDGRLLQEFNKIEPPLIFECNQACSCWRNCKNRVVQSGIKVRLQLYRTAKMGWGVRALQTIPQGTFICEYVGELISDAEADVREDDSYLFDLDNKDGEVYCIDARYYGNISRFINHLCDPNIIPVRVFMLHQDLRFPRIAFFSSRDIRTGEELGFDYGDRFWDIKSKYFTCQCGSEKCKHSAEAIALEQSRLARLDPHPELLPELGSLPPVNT
Procedure, shortened: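 Human G9a (0.05 to 0.1 nM) in Tris pH 9.0 buffer preincubated with compound 10 min, then biotinylated histone H3 (1-21) peptide and SAM mixed 1:1 from 500 nM and 150 μM solutions, 1 h at room temperature. H3K9me2 detected by AlphaLISA acceptor/streptavidin donor beads; IC50 from percent inhibition relative to no-compound and no-enzyme controls.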

[3] = tested on: human lung cancer cell line NCI-H460; assay: Colony formation inhibition test; format: cell-based; conditions: 288 h, NCI-H460 cells, culture for 12 days, read-out: Inhibitory activity (colony formation GI50)
Procedure: Each compound was evaluated for its colony formation inhibitory activity against a human lung cancer cell line NCI-H460. The NCI-H460 cells were cultured in a DMEM medium (FUJIFILM Wako Pure Chemical Corp., 044-29765) containing 10% fetal bovine serum and 4 mM glutamine. The cultured cells were washed with PBS, then detached with trypsin/EDTA, and adjusted to 2×10^3 cells/mL to prepare a cell suspension. The cell suspension was inoculated at 1 mL/well to a 12-well microplate (Corning Inc., 3513), and the test compound (DMSO solution) was added at 1 μL/well, followed by culture for 12 days under conditions of 37° C. and 5% CO2. DMSO was added at 1 μL/well to control wells with a final DMSO concentration set to 0.1%. The medium was discarded every day or every two days, and a fresh medium was added at 1 mL/well. The test compound or DMSO was added at 1 μL/well. The proportion of a colony of each well was measured using a high-speed cell imaging system (Tomy Digital Biology Co., Ltd., Celigo). The ratio of the colony in each compound-supplemented group was determined with the ratio of the colony formed in a test compound solution-unsupplemented well defined as 1. A compound concentration necessary for suppressing the rate of colony formation by 50% of the control (GI50) was calculated using data analysis software Origin (LightStone Crop.).

[4] = read-out: Inhibitory activity (G9a IC50)
[5] = biotinylated histone H3 peptide (1-21), SAM, read-out: Inhibitory activity (G9a IC50 value)

Row | IC50 [1] [µM] | IC50 [2, 4] [µM] | GI50 [3] [µM] | IC50 [2, 5] [µM] | SMILES
1 | 0.05 to 0.5 | ≥ 0.2 | ≥ 1 |  | CCCCC(NC(=O)Cc1ccccc1)C(=O)Nc1ccc(OC2CCN(C)CC2)nc1 (stereo not shown) [Example 12-2]
2 |  | 0.05 to 0.2 |  |  | CCCCC(NC(=O)c1[nH]c2c(c1C)C(=O)CC(C)(C)C2)C(=O)Nc1ccc(OC2CNC2)nc1 (stereo not shown) [Example 26-1]
3 |  | 0.05 to 0.2 |  |  | CCCCC(NC(=O)c1[nH]c2c(c1C)C(=O)CC(C)(C)C2)C(=O)Nc1ccc(OCCN)nc1 (stereo not shown) [Example 24-4]
4 |  | ≥ 0.2 |  |  | Cc1c(C(=O)NC(CCC2CC2)c2nc3c(CN4CCN(C)CC4)cccc3n2C)[nH]c2c1C(=O)CC(C)(C)C2 (stereo not shown) [Example 31-6]
5 |  | 0.05 to 0.2 |  |  | Cc1c(C(=O)NC(CCC2CC2)c2nc3c(CN4CCCC4)cccc3n2C)[nH]c2c1C(=O)CC(C)(C)C2 (stereo not shown) [Example 31-5]
6 |  | ≥ 0.2 |  |  | CCCCC(NC(=O)Cc1ccc(C)cc1)C(=O)Nc1ccc(OC2CCN(C)CC2)nc1 (stereo not shown) [Example 11-8]
7 |  | 0.05 to 0.2 |  |  | CCCCC(NC(=O)c1sc(-c2ccccc2)nc1C(F)(F)F)C(=O)Nc1ccc(OC2CCN(C)CC2)nc1 (stereo not shown) [Example 11-3]
8 |  | 0.05 to 0.2 |  |  | CCCCC(NC(=O)c1[nH]c2c(c1C)C(=O)CC(C)(C)C2)C(=O)Nc1ccc(N2CCNCC2)nc1 (stereo not shown) [Example 26-5]
9 |  | < 0.05 |  |  | CCCCC(NC(=O)c1[nH]c2c(c1C)C(=O)CC(C)(C)C2)C(=O)NCc1ccc(CN2CCCC2)cc1 (stereo not shown) [Example 18-11]

More lines, now with the values behind:

Row | SMILES | IC50 [1] [µM] | IC50 [2, 4] [µM] | GI50 [3] [µM] | IC50 [2, 5] [µM]
10 | CCCC[C@H](NC(=O)c1[nH]c2c(c1C)C(=O)CC(C)(C)C2)C(=O)Nc1ccc(OC2CCN(C)CC2)cc1 [Example 6-32] | < 0.05 | < 0.05 | < 0.5 | 
11 | COc1ccc(NC(=O)C(CCC2CC2)NC(=O)c2ccc(CN3CCN(C)CC3)cc2)cn1 (stereo not shown) [Example 6-52] | 0.05 to 0.5 | ≥ 0.2 | 0.5 to 1 | 
12 | Cc1c(C(=O)NC(CCC2CC2)C(=O)NC2CCN(C)CC2)[nH]c2c1C(=O)CC(C)(C)C2 (stereo not shown) [Example 1-68] | 0.05 to 0.5 |  | ≥ 1 | ≥ 0.2
13 | COc1ccc(NC(=O)C(CCC2CC2)NC(=O)c2ccc(Nc3ccncc3)cc2C)cn1 (stereo not shown) [Example 6-51] | 0.05 to 0.5 | < 0.05 | < 0.5 | 
14 | O=C(Cc1ccccc1)NC(CCC1CC1)C(=O)Nc1ccc(OC2COC2)nc1 (stereo not shown) [Example 1-87] | 0.05 to 0.5 |  | ≥ 1 | 0.05 to 0.2
15 | CCCC[C@H](NC(=O)c1[nH]c2c(c1C)C(=O)CC(C)(C)C2)C(=O)Nc1ccc(OC2CCN(C)CC2)cc1OC [Example 6-30] | < 0.05 | < 0.05 | < 0.5 | 
16 | CCCC[C@H](NC(=O)c1[nH]c2c(c1C)C(=O)CC(C)(C)C2)C(=O)N[C@@H](C)c1ccccc1 [Example 2-1, 3,6,6-trimethyl-4-oxo-N-((S)-1-oxo-1-(((S)-1-phenylethyl)amino)hexan-2-yl)-4,5,6,7-tetrahydro-1H-indole-2-carboxamide] | < 0.05 | 0.05 to 0.2 | 0.5 to 1 | 
17 | CCCCNC(=O)C(CCC1CC1)NC(=O)c1[nH]c2c(c1C)C(=O)CC(C)(C)C2 (stereo not shown) [Example 1-82] | < 0.05 |  | ≥ 1 | 0.05 to 0.2
18 | CCCC[C@H](NC(=O)c1[nH]c2c(c1C)C(=O)CC(C)(C)C2)C(=O)NCc1ccc(CN(C)C)cc1 [Example 6-34] | < 0.05 | < 0.05 | 0.5 to 1 | 
19 | Cc1ccc(NC(=O)[C@H](CCC2CC2)NC(=O)c2[nH]c3c(c2C)C(=O)CC(C)(C)C3)cn1 [Example 6-10] | 0.05 to 0.5 | < 0.05 | 0.5 to 1 | 
20 | CCCCC(NC(=O)c1[nH]c2c(c1C)C(=O)CC(C)(C)C2)C(=O)NCc1ccccc1OC (stereo not shown) [Example 1-44] |  |  |  | ≥ 0.2
21 | CCCCC(NC(=O)c1[nH]c2c(c1C)C(=O)CC(C)(C)C2)C(=O)NCc1ccccc1O (stereo not shown) [Example 1-29] |  |  |  | ≥ 0.2
22 | CCCCC(NC(=O)c1[nH]c2c(c1C)C(=O)CC(C)(C)C2)C(=O)Nc1ccccc1CCC (stereo not shown) [Example 1-19] |  |  |  | ≥ 0.2
23 | Cc1c(C(=O)NC(CCC2CC2)C(=O)N2CCc3cc(CN(C)C)ccc32)[nH]c2c1C(=O)CC(C)(C)C2 (stereo not shown) [Example 1-125] |  | ≥ 0.2 |  | 
24 | Cc1c(C(=O)NC(CCC2CC2)C(=O)N(C)Cc2ccc(CN(C)C)cc2)[nH]c2c1C(=O)CC(C)(C)C2 (stereo not shown) [Example 6-20] |  | < 0.05 |  | 
25 | CCCCC(NC(=O)c1[nH]c2c(c1C)C(=O)CC(C)(C)C2)C(=O)Nc1cccc2c1CCCC2 (stereo not shown) [Example 1-93] |  |  |  | 0.05 to 0.2
26 | CCCCC(NC(=O)c1[nH]c2c(c1C)C(=O)CC(C)(C)C2)C(=O)Nc1cccc(CN2CCOCC2)c1 (stereo not shown) [Example 1-99] |  |  |  | ≥ 0.2
27 | Cc1c(C(=O)NC(CCC2CC2)C(=O)N2CCc3c(CN4CCCC4)cccc32)[nH]c2c1C(=O)CC(C)(C)C2 (stereo not shown) [Example 1-126] |  | < 0.05 |  | 
28 | Cc1c(C(=O)NC(CCC2CC2)C(=O)Nc2ccc(CN(C)C)cc2)[nH]c2c1C(=O)CC(C)(C)C2 (stereo not shown) [Example 1-138] |  | < 0.05 |  | 
29 | COc1ccc(NC(=O)C(CCC2CC2)NC(=O)c2ccc(Nc3ccncc3)c(C)c2)cn1 (stereo not shown) [Example 6-57] |  | < 0.05 |  | 
30 | CCCCC(NC(=O)c1[nH]c2c(c1C)C(=O)CC(C)(C)C2)C(=O)Nc1cccnc1CC (stereo not shown) [Example 6-23] |  | ≥ 0.2 |  | 
31 | CCCCC(NC(=O)c1ccc(Nc2ccncc2)cc1)C(=O)Nc1ccc(OC)cc1 (stereo not shown) [Example 9-2] |  | 0.05 to 0.2 |  | 
32 | CCCCC(NC(=O)c1[nH]c2c(c1C)C(=O)CC(C)(C)C2)C(=O)N[C@@H]1CCc2ccccc21 (stereo partly shown) [Example 1-111] |  | 0.05 to 0.2 |  | 
33 | CN(C)c1ccc(NC(=O)C(CCC2CC2)NC(=O)c2ccc(Nc3ccncc3)cc2)cn1 (stereo not shown) [Example 6-85] |  | < 0.05 |  | 
34 | COc1ccc(NC(=O)C(CCC2CC2)NC(=O)c2ccc(CCCN(C)C)cc2)cn1 (stereo not shown) [Example 6-74] |  | 0.05 to 0.2 |  | 
35 | Cc1c(C(=O)NC(CCC2CC2)C(=O)N2CCc3c(OCCN4CCCCC4)cccc32)[nH]c2c1C(=O)CC(C)(C)C2 (stereo not shown) [Example 1-123] |  | 0.05 to 0.2 |  | 
36 | CCCCC(NC(=O)c1[nH]c2c(c1C)C(=O)CC(C)(C)C2)C(=O)Nc1ccc(OC2CCN(C)CC2)nc1 (stereo not shown) [Example 1-6] |  |  |  | 0.05 to 0.2
